{"source": "patent US20100292178A1", "about": "“Method of treating non-insulin dependent diabetes mellitus and related complications” (priority 2003, published 2010)", "key": {"[1]": {"tested_on": "patients with diabetic limb-end gangrene", "assay": "Clinical observation of diabetic limb-end gangrene treated with Glucosynergy"}, "[2]": {"design": "species or system domestic rabbits", "conditions": "rabbit, in vivo", "protocol": "The effect of the berberine is the most quickly and distributed extensively, when the berberine is labeled with Hydrogen 3 and is administered to domestic rabbits by direct feeding that berberine is injected through a non-invasive tube directly through the mouth or by injection. […] The total amount in the blood plasma is 38%±3%.\n(§1) All samples are calibrated by using an internal standard."}, "[3]": {"assay": "Excretion of labeled berberine after injection into large mice", "format": "in vivo", "conditions": "within six days after injection", "from_the_text": "Within the six days after the injection of the labeled berberine into large mice, the amounts of the labeled berberine found in the mice's urine and feces were 73% and 10.9% of the injected concentration respectively. The labeled berberine found in the urine was primarily the original form although some of it became metabolized products.\nas §1"}, "[4]": {"conditions": "rabbit, in vivo", "protocol": "Pharmokinetic properties of berberine are performed by conventional method involving radioactive isotope. […] All samples are calibrated by using an internal standard.\n300 μg quinidine is added to the test tube as an internal standard. One ml chloroform is added into the test tube, which is shaken for ten minutes. Then, the test tube is centrifuged at 400 rev/min for five minutes with a sufficient gravity for separating residues from its liquid. An absolute amount of 0.8 ml of the chloroform is collected by a pipette and is subsequently dried by blowing air. The residue from the dried chloroform is collected and dissolved in a suitable amount of dry ethanol which contains essentially no water. The sample is ready for analysis using thin layer chromatography.\nA silica gel plate is cut into nine strips, each being 1.0 cm wide. Separation is conducted under running buffer of ethyl acetate, ethyl methanoate, methanol and water mixture at a ratio of 5.4:4.6:1.2:1.0. The sample size is 5 μl. When a desirable separation is achieved, the strips are scanned for reflective intensity at wavelength λex, 350 nm and λem 550 nm using Japanese Shimatsu CS-900 double wavelengths thin layer reflective straight line scanner with a Xenon lamp. […] All scans are performed with 0.5 mm×10 mm slit, at scanning speed 20 mm/min, and at recording paper speed 10 mm/min.\nAfter the blood serum's pH is adjusted to basic, ethyl ether is used to extract berberine. After it is dried, the residues are dissolved in a mobile phase. A fixed amount of sample is introduced into the HPLC system containing a reverse C18 column. The mobile phase is methanol, water and ethylenediamine at a ratio of 75:25:0.5. The pH is adjusted to 6.8 by using acetic acid. Concentration or amount is monitored at wavelength (λ) 345 nm.\nC=Ae^−a+Be^−β−(A−B)e^−kat, where ka is average rate constant weighed by their coefficients: ka=(Aβ+Bα)/(A+B)."}, "[5]": {"assay": "Pharmacokinetics of a single oral dose of berberine in human patients", "format": "in vivo", "conditions": "300 mg orally"}, "[6]": {"conditions": "cited from earlier work"}, "[7]": {"conditions": "70 cases Observation Group, 50 cases Contrast Group"}, "[8]": {"conditions": "Treatment Group 18 cases, Contrast Group 6 cases"}}, "note": "Where two headings read alike, the source gives them in different places."}
{"smiles": "CN(C)C(=N)N=C(N)N", "note": "[Glucophage]", "values": [{"measurement": "electrocardiogram hypertrophic cardiomyopathy: effective", "setting": "[1]; [7]", "value": 12, "unit": "cases"}, {"measurement": "electrocardiogram hypertrophic cardiomyopathy: not effective", "setting": "[1]; [7]", "value": 35, "unit": "cases"}, {"measurement": "electrocardiogram hypertrophic cardiomyopathy: outstandingly effective", "setting": "[1]; [7]", "value": 3, "unit": "cases"}, {"measurement": "electrocardiogram hypertrophic cardiomyopathy: total effective rate", "setting": "[1]; [7]", "value": 30, "unit": "%"}, {"measurement": "Fibrinogen", "setting": "[1]; After Treatment", "value": "3.45 ± 0.44", "unit": "q/L"}, {"measurement": "HDL", "setting": "[1]; After Treatment", "value": "1.12 ± 0.24", "unit": "mmol/L"}, {"measurement": "LDL", "setting": "[1]; After Treatment", "value": "4.51 ± 0.81", "unit": "mmol/L"}, {"measurement": "Red Cells Accumulation", "setting": "[1]; After Treatment", "value": "49.50 ± 4.86", "unit": "%"}, {"measurement": "TC", "setting": "[1]; After Treatment", "value": "5.40 ± 0.76", "unit": "mmol/L"}, {"measurement": "TG", "setting": "[1]; After Treatment", "value": "3.39 ± 0.76", "unit": "mmol/L"}, {"measurement": "Total Blood Viscosity High Excise", "setting": "[1]; After Treatment", "value": "6.33 ± 0.34", "unit": "mpa · s"}, {"measurement": "Total Blood Viscosity Low Excise", "setting": "[1]; After Treatment", "value": "15.19 ± 2.10", "unit": "mpa · s"}, {"measurement": "Viscosity Plasma", "setting": "[1]; After Treatment", "value": "2.45 ± 0.37"}, {"measurement": "Fibrinogen", "setting": "[1]; Before Treatment", "value": "3.90 ± 0.81", "unit": "q/L"}, {"measurement": "HDL", "setting": "[1]; Before Treatment", "value": "1.07 ± 0.20", "unit": "mmol/L"}, {"measurement": "LDL", "setting": "[1]; Before Treatment", "value": "5.27 ± 1.24", "unit": "mmol/L"}, {"measurement": "Red Cells Accumulation", "setting": "[1]; Before Treatment", "value": "49.58 ± 4.34", "unit": "%"}, {"measurement": "TC", "setting": "[1]; Before Treatment", "value": "5.89 ± 1.17", "unit": "mmol/L"}, {"measurement": "TG", "setting": "[1]; Before Treatment", "value": "3.54 ± 0.67", "unit": "mmol/L"}, {"measurement": "Total Blood Viscosity High Excise", "setting": "[1]; Before Treatment", "value": "6.23 ± 0.57", "unit": "mpa · s"}, {"measurement": "Total Blood Viscosity Low Excise", "setting": "[1]; Before Treatment", "value": "15.21 ± 2.17", "unit": "mpa · s"}, {"measurement": "Viscosity Plasma", "setting": "[1]; Before Treatment", "value": "2.72 ± 0.66"}, {"measurement": "cases ineffective", "setting": "[1]; Contrast Group 6 cases", "value": 3, "unit": "cases"}, {"measurement": "cases improved", "setting": "[1]; [8]", "value": 2, "unit": "cases"}, {"measurement": "cases recovered", "setting": "[1]; [8]", "value": 1, "unit": "cases"}, {"measurement": "24 hours fixed quantity of uric sugar, Before Treatment", "setting": "[1]; baseline", "value": "15.23 ± 3.02", "unit": "g/24 h"}, {"measurement": "Serum SOD Vitality, Before Treatment", "setting": "[1]; baseline", "value": "89.96 ± 18.21", "unit": "nu/L"}, {"measurement": "24 hours fixed quantity of uric sugar, After Treatment", "setting": "[1]; human, in vivo", "value": "8.37 ± 1.89", "unit": "g/24 h"}, {"measurement": "Serum SOD Vitality, After Treatment", "setting": "[1]; human, in vivo", "value": "94.21 ± 17.03", "unit": "nu/L"}, {"measurement": "Serum SOD Vitality, Value of Difference", "setting": "[1]; human, in vivo", "value": "−4.25 ± 3.33", "unit": "nu/L"}]}
{"smiles": "COc1ccc2cc3[n+](cc2c1OC)CCc1cc2c(cc1-3)OCO2", "note": "[berberine]", "values": [{"measurement": "tissue concentration measured by radiation intensity", "setting": "[2]", "value": "the highest in the lung, and then in liver, spleen, kidney and heart"}, {"measurement": "total amount in the blood plasma", "setting": "[2]", "value": "38%±3%"}, {"measurement": "amount of labeled berberine found in feces", "setting": "[3]", "value": "10.9 % of the injected concentration"}, {"measurement": "amount of labeled berberine found in urine", "setting": "[3]", "value": "73 % of the injected concentration"}, {"measurement": "time to maximum concentration in the blood", "setting": "[4]", "value": "about 50 minutes"}, {"measurement": "apparent distribution volume (Vd)", "setting": "[4]; iv", "value": "22.1 ± 1.71", "unit": "L/kg"}, {"measurement": "apparent half life for elimination (t½ β)", "setting": "[4]; iv", "value": "35.8 ± 2.0", "unit": "h"}, {"measurement": "apparent half life of distribution (t½ α)", "setting": "[4]; iv", "value": "1.03 ± 0.11", "unit": "h"}, {"measurement": "apparent drug distribution volume (Vd)", "setting": "[4]; po", "value": "20 ± 3", "unit": "L/kg"}, {"measurement": "apparent half life for elimination (t½ β)", "setting": "[4]; po", "value": "35.3 ± 1.3", "unit": "h"}, {"measurement": "apparent half life of distribution (t½ α)", "setting": "[4]; po", "value": "1.41 ± 0.16", "unit": "h"}, {"measurement": "apparent rate constant ka", "setting": "[4]; po", "value": "2.45±0.22", "unit": "per hour"}, {"measurement": "maximum plasma concentration Cmax", "setting": "[5]", "value": 395, "unit": "ng/mL"}, {"measurement": "t½ corresponding to elimination rate constant Ke", "setting": "[5]", "value": 2.94, "unit": "h"}, {"measurement": "Tmax", "setting": "[5]; human, plasma, po, read-out: time to peak plasma concentration, tmax", "value": 2.37, "unit": "h"}, {"measurement": "half-life", "setting": "[5]; human, plasma, po, read-out: t½ corresponding to apparent absorption rate constant ka (converted)", "value": 0.87, "unit": "h"}]}
{"smiles": "OC[C@H]1O[C@@H](O[C@@H]2OC=C[C@H]3[C@H](O)[C@@H]4O[C@]4(CO)[C@@H]23)[C@H](O)[C@@H](O)[C@@H]1O", "note": "[catalpol]", "values": [{"measurement": "solubility in lipophilic organic solvents", "setting": "[6]; chloroform, benzene, petroleum ether", "value": "almost insoluble"}, {"measurement": "solubility in water and methanol", "setting": "[6]", "value": "highly soluble"}]}
